# Assay results published in patent US9012659B2, “3-(indolyl)- or 3-(azaindolyl)-4-arylmaleimide compounds and their use in tumor treatment” (Johannes Gutenberg—Universitat Mainz, priority 2009, dated 2015).
# Tests used:
# [1] = tested on: HT-29 human colon adenocarcinoma cells; assay: Evaluation of antiproliferative effect (MTT assay); type: cell-based; conditions: 72 h, treatment for 3 days, untreated HT-29 cells: 100%, read-out: Decrease of HT-29 colon cancer cell viability (%)
# Protocol: Cell suspensions (200 μl) containing 10,000 viable cells were plated into each well and incubated over night before exposure with various concentrations of agents. Cells were then incubated with 100 μl of different concentrations of compounds for 3 days at 37° C. with 5% CO2. At the end of the time point (3 days), 10 μl/well of MTT stock solution (5 mg/ml) (Biomol, Germany) were added. […] Each experiment was done in triplicate. […]
# The antitumor efficacy of the compounds of the invention was examined against HT-29 human colon adenocarcinoma cells. […] The compound of example 1 of WO 2006/061212 was used as comparative compound.
# [2] = tested on: human HT-29 cancer cells; assay: Nicoletti apoptosis assay by cell cycle analysis (sub-G1 fraction); type: cell-based; conditions: combination: compound plus Irinotecan 1.18 μM, agent-free control 3.4 ± 0.9%
# Protocol: Cancer cells were transferred to 12-well flat-bottomed plates. Cell suspensions (1 ml) containing 1.5×10^5 viable cells were plated into each well and incubated over night before exposure with various concentrations of agents. Cells were then incubated in 1 ml medium with various concentrations of single applied moguntinones, irinotecan alone, or with the combinations of moguntinones with irinotecan or topotecan at 37° C. with 5% CO2.
# After incubation cells were washed with PBS, trypsinizated, palleted and mixed with propidium-iodide-buffer (containing 0.1% sodium citrate, 0.1% triton X-100, […] propidium-iodide) and incubated for 1 hour at 4° C. Cell cycle sub-G1-fraction analysis was performed as described previously^23 using a FACS cytometer (BD FACS Calibur™, BD Biosciences, Heidelberg, Germany). Each experiment was done in triplicate.
# All cells were maintained at 37° C. in an incubator under an atmosphere containing 5% CO2. After incubation the cells were washed with PBS, trypsinized, pelleted and mixed with PI buffer (containing 0.1% sodium citrate, 0.1% triton X-100, […] propidium iodide (PI)) and incubated for 1 hour at 4° C. Cell cycle sub-G1 fraction analysis was performed as described previously (Nicoletti, I. et al. (1991) J. Immunol. Methods 139, 271-279) using a flow cytometer (BD FACS Calibur™, BD Biosciences, Heidelberg, Germany). […]
melting point [°C],Structure (SMILES),viability at 2.6 µM [1] [%],viability at 7.9 µM [1] [%],viability at 26 µM [1] [%],viability at 52 µM [1] [%],"Induction of apoptosis, combination compound plus irinotecan [2] [%]"
187 to 188,"COc1cc(C2=C(c3cn(CCCN(C)C)c4ccccc34)C(=O)NC2=O)cc(OC)c1OC [Example 6, 3-{1-[3-(Dimethylamino)propyl]-1H-indol-3-yl}-4-(3,4,5-trimethoxyphenyl)maleinimide]",39.3 ± 2.6,38.5 ± 2.43,15.8 ± 1.35,19.4 ± 1.32,
179 to 180,"COc1cc(C2=C(c3cn(CCN4CCCCC4)c4ccccc34)C(=O)NC2=O)cc(OC)c1OC [Example 7, 3-{1-[2-(Piperidin-1-yl)ethyl]-1H-indol-3-yl}-4-(3,4,5-trimethoxyphenyl)-maleinimide]",86.5 ± 2.16,56.9 ± 3.02,20.1 ± 1.36,24.3 ± 0.98,
274 to 275,"COc1cc(C2=C(c3cn(CCCN)c4ccccc34)C(=O)NC2=O)cc(OC)c1OC.Cl [Example 2, 3-(1-[3-Ammoniopropyl]-1H-indol-3-yl)-4-(3,4,5-trimethoxyphenyl)-maleinimide-chloride]",45.8 ± 3.25,36.4 ± 1.77,17.65 ± 0.13,6.68 ± 0.29,
225 to 226,"COc1cc(C2=C(c3cn(CCCN4CCN(C)CC4)c4ccccc34)C(=O)NC2=O)cc(OC)c1OC [Example 9, 3-{1-[3-(4-Methylhexahydro-1-pyrazindiylium)propyl]-1H-indol-3-yl}-4-(3,4,5-trimethoxyphenyl)-maleinimide dichloride]",66.5 ± 3.1,49.9 ± 1.32,22.6 ± 1.16,15.3 ± 1.21,
274 to 275,"COc1cc(C2=C(c3c[nH]c4cccnc34)C(=O)NC2=O)cc(OC)c1OC [Example 12, 3-(4-Azaindol-3-yl)-4-(3,4,5-trimethoxyphenyl)-1H-pyrrol-2,5-dione]",,,,,
232 to 233,"COc1cc(C2=C(c3c[nH]c4ccc(F)cc34)C(=O)NC2=O)cc(OC)c1OC [Example 10, 3-(5-Fluoro-1H-indol-3-yl)-4-(3,4,5-trimethoxyphenyl)-maleinimide]",,,,,
160,"COc1cc(C2=C(c3cn(CCCO)c4ccccc34)C(=O)NC2=O)cc(OC)c1OC [Example 4, 3-(1-[3-Hydroxypropyl]-1H-indol-3-yl)-4-(3,4,5-trimethoxyphenyl)-maleinimide]",37.9 ± 1.3,34.7 ± 0.78,27.7 ± 1.23,25.4 ± 2.26,
184 to 185,"COc1cc(C2=C(c3cn(CCN(C)C)c4ccccc34)C(=O)NC2=O)cc(OC)c1OC [Example 5, 3-{1-[2-(Dimethylamino)ethyl]-1H-indol-3-yl}-4-(3,4,5-trimethoxyphenyl)-maleinimide]",68.5 ± 8.69,52.6 ± 0.53,32.2 ± 0.9,15 ± 0.9,
277.1,"COc1cc(C2=C(c3cn(CCN)c4ccccc34)C(=O)NC2=O)cc(OC)c1OC.Cl [Example 1, 3-(1-[2-Ammonioethyl]-1H-indol-3-yl)-4-(3,4,5-trimethoxyphenyl)-maleinimide-chloride]",32.3 ± 1.07,29.3 ± 2.09,12.5 ± 0.39,8.95 ± 0.65,51.00 ± 0.56
195 to 196,"COc1cc(C2=C(c3cn(CCO)c4ccccc34)C(=O)NC2=O)cc(OC)c1OC [Example 3, 3-(1-[2-Hydroxyethyl]-1H-indol-3-yl)-4-(3,4,5-trimethoxyphenyl)-maleinimide]",68.8 ± 2.48,70.2 ± 3.72,45.7 ± 2.18,28.7 ± 0.55,
238 to 239,"COc1cc(C2=C(c3cn(CCN4CCOCC4)c4ccccc34)C(=O)NC2=O)cc(OC)c1OC [Example 8, 3-{1-(2-Morpholinoethyl)-1H-indol-3-yl}-4-(3,4,5-trimethoxyphenyl)-maleinimide]",81.1 ± 2.99,84.1 ± 2.18,53.39 ± 0.1,39.3 ± 1.31,
259 to 262,"COc1cc(C2=C(c3c[nH]c4ccc(Br)cc34)C(=O)NC2=O)cc(OC)c1OC [Example 11, 3-(5-Bromo-1H-indol-3-yl)-4-(3,4,5-trimethoxyphenyl)-maleinimide]",,,,,
